Assays:
Type in all cases: biochemical
Settings in all cases: recombinant human kinase domain, Caliper mobility shift
[1] = biological target: JAK1 (Homo sapiens (Human), UniProt P23458); test: JAK Caliper enzyme assay at 1 mM ATP (JAK1)
Method: Compounds of the invention were evaluated by in vitro methods to determine their respective ability to inhibit the JAK kinases (TYK2, JAK1, JAK2, JAK3). The human JAK inhibitory activity was determined by using a microfluidic assay to monitor phosphorylation of a synthetic peptide by the recombinant human kinase domain of each of the four members of the JAK family, JAK1, JAK2, JAK3 and TYK2. […] Reactions were terminated by the addition of stop buffer containing EDTA. Utilizing the LabChip 3000 mobility shift technology (Caliper Life Science), each assay reaction was sampled to determine the level of phosphorylation. This technology is separation-based, allowing direct detection of fluorescently labeled substrates and products. Separations are controlled by a combination of vacuum pressure and electric field strength optimized for each peptide substrate. […] Compounds were added to a 384-well plate. […] Enzyme concentrations and incubation times were optimized for each new enzyme preps and were modified slightly over time to ensure 20% to 30% phosphorylation. […] The assay plates were placed on a Caliper Life Science LC3000 instrument, and each well was sampled using appropriate separation conditions to measure the unphosphorylated and phosphorylated peptide. The data was collected using the HTS Well Analyzer software from Caliper Life Sciences. […] The percent effect at each compound concentration was calculated based on the positive and negative control well contained within each assay plate (Equation 2). […] The percent effect was plotted against the compound concentration compound. […] Where max is the maximum asymptote (complete inhibition), min is the minimum asymptote (no inhibition) and s is the slope factor.

[2] = biological target: JAK3 (Homo sapiens (Human), UniProt P52333); test: JAK Caliper enzyme assay at 1 mM ATP (JAK3)
Method: (§1) Compounds of the invention were evaluated by in vitro methods to determine their respective ability to inhibit the JAK kinases (TYK2, JAK1, JAK2, JAK3).
(§2) The human JAK inhibitory activity was determined by using a microfluidic assay to monitor phosphorylation of a synthetic peptide by the recombinant human kinase domain of each of the four members of the JAK family, JAK1, JAK2, JAK3 and TYK2. […] Each assay condition was optimized for enzyme concentration and room temperature incubation time to obtain a conversion rate of 20% to 30% phosphorylated peptide product. Reactions were terminated by the addition of stop buffer containing EDTA. Utilizing the LabChip 3000 mobility shift technology (Caliper Life Science), each assay reaction was sampled to determine the level of phosphorylation. This technology is separation-based, allowing direct detection of fluorescently labeled substrates and products. Separations are controlled by a combination of vacuum pressure and electric field strength optimized for each peptide substrate.
(§3) JAK Caliper Enzyme Assay at 1 mM ATP
(§4) Compounds were added to a 384-well plate. Reaction mixtures contained 10 mM HEPES, pH 7.4, 10 mM MgCl2, 0.01% BSA, 0.0005% Tween 20, 1 mM ATP and 1 μM peptide substrate. […] The assays were initiated by the addition of 20 nM JAK1, 1 nM JAK2, 1 nM JAK or 1 nM TYK2 enzyme and were incubated at room temperature for three hours for JAK1, 60 minutes for JAK2, 75 minutes for JAK3 or 135 minutes for TYK2. Enzyme concentrations and incubation times were optimized for each new enzyme preps and were modified slightly over time to ensure 20% to 30% phosphorylation. The assays were stopped with 15 μL of 180 mM HEPES, pH 7.4, 20 mM EDTA, and 0.2% Coating Reagent 3. The assay plates were placed on a Caliper Life Science LC3000 instrument, and each well was sampled using appropriate separation conditions to measure the unphosphorylated and phosphorylated peptide.
(§5) The data was collected using the HTS Well Analyzer software from Caliper Life Sciences. The data output for data analysis is the percent product converted calculated on peak height (Equation 1). % product converted=100*((product)/(product+substrate)) Equation 1: […]
(§6) The percent effect at each compound concentration was calculated based on the positive and negative control well contained within each assay plate (Equation 2). […] The negative control wells contained DMSO alone (at the same concentration as the compound wells) that was used to set the baseline activity in the assay (i.e., uninhibited JAK1, JAK2, JAK3 or TYK2). % effect=100*((sample well−negative control)/(positive control-negative control)) Equation 2: The percent effect was plotted against the compound concentration compound.

[3] = biological target: JAK2 (Homo sapiens (Human), UniProt O60674); test: JAK Caliper enzyme assay at 1 mM ATP (JAK2)
Method: as §1, §2, §3, §4, §5, §6

[4] = biological target: TYK2 (Homo sapiens (Human), UniProt P29597); test: JAK Caliper enzyme assay at 1 mM ATP (TYK2)
Method: as §1, §2, §3, §4, §5, §6

Chain of JAK3 (P52333 822-1111): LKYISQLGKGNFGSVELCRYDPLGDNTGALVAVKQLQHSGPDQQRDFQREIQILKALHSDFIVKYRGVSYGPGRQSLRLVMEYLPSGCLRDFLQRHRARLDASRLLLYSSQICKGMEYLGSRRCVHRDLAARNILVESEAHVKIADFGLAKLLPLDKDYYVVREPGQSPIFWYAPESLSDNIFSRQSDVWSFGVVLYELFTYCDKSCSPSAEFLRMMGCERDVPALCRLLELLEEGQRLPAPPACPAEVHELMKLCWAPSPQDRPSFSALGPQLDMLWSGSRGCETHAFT
Chain of JAK1 (P23458 875-1153): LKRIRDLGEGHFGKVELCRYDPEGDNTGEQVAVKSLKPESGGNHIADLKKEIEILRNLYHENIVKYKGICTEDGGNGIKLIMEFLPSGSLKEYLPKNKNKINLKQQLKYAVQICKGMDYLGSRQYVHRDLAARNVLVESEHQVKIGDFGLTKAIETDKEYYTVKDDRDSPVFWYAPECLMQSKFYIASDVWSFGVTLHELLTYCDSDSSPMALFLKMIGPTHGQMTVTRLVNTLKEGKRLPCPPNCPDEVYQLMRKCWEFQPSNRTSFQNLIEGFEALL
Chain of TYK2 (P29597 897-1176): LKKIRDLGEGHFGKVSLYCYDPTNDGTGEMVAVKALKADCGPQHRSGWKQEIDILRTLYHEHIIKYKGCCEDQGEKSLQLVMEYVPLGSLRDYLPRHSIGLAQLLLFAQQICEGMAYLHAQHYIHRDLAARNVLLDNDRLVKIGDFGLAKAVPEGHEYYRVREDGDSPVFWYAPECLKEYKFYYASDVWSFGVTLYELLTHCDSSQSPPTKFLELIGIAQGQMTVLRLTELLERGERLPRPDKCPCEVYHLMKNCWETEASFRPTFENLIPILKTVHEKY
Chain of JAK2 (O60674 849-1124): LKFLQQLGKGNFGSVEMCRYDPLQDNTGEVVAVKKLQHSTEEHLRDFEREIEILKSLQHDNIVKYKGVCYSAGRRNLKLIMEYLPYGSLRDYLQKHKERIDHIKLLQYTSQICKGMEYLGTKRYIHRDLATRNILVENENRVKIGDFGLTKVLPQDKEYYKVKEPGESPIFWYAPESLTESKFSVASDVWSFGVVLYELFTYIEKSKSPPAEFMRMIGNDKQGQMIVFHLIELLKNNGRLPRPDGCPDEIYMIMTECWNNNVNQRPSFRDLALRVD

SMILES | IC50 [1] [µM] | IC50 [2] [µM] | IC50 [3] [µM] | IC50 [4] [µM]
N#CCC1(n2cc(-c3nc(-c4cc(CO)[nH]n4)cn4nccc34)cn2)CN(CC2CC2)C1 [Example 2, 2-(1-(Cyclopropylmethyl)-3-(4-(6-(5-(hydroxymethyl)-1H-pyrazol-3-yl)pyrazolo[1,5-a]pyrazin-4-yl)-1H-pyrazol-1-yl)azetidin-3-yl)acetonitrile] | 1.06 | > 10 | 0.299 | 0.062
CCN1CC(CC#N)(n2cc(-c3nc(-c4cc(CO)[nH]n4)cn4nccc34)cn2)C1 [Example 3, 2-(1-Ethyl-3-(4-(6-(5-(hydroxymethyl)-1H-pyrazol-3-yl)pyrazolo[1,5-a]pyrazin-4-yl)-1H-pyrazol-1-yl)azetidin-3-yl)acetonitrile] | 2.29 |  |  | 0.064
Cn1cc(-c2cn3nccc3c(-c3cnn(C4(CC#N)CCC4)c3)n2)cn1 [Example 4, 2-(1-(4-(6-(1-Methyl-1H-pyrazol-4-yl)pyrazolo[1,5-a]pyrazin-4-yl)-1H-pyrazol-1-yl)cyclobutyl)acetonitrile] | 1.34 | > 10 | 0.141 | 0.055
CO[C@H]1C[C@](CC#N)(n2cc(-c3nc(-c4cc(NC(C)=O)[nH]n4)cn4nccc34)cn2)C1 [Example 5, N-(3-(4-(1-((1r,3s)-1-(Cyanomethyl)-3-methoxycyclobutyl)-1H-pyrazol-4-yl)pyrazolo[1,5-a]pyrazin-6-yl)-1H-pyrazol-5-yl)acetamide] | 1.92 | > 10 |  | 0.035
CNC(=O)c1cc(-c2cn3nccc3c(-c3cnn([C@]4(CC#N)C[C@@H](OC)C4)c3)n2)[nH]n1 [Example 6, 5-(4-(1-((1r,3s)-1-(Cyanomethyl)-3-methoxycyclobutyl)-1H-pyrazol-4-yl)pyrazolo[1,5-a]pyrazin-6-yl)-N-methyl-1H-pyrazole-3-carboxamide] |  | > 10 | 0.5 | 
Cn1cc(-c2cn3nccc3c(-c3cnn(C4(CC#N)CN(S(C)(=O)=O)C4)c3)n2)cn1 [Example 8, 2-(3-(4-(6-(1-Methyl-1H-pyrazol-4-yl)pyrazolo[1,5-a]pyrazin-4-yl)-1H-pyrazol-1-yl)-1-(methylsulfonyl)azetidin-3-yl)acetonitrile] | 0.265 | > 9.28 |  | 0.011
Cn1cc(-c2cn3nccc3c(-c3cnn(C4(CC#N)CN(S(=O)(=O)C5CC5)C4)c3)n2)cn1 [Example 9, 2-(1-(Cyclopropylsulfonyl)-3-(4-(6-(1-methyl-1H-pyrazol-4-yl)pyrazolo[1,5-a]pyrazin-4-yl)-1H-pyrazol-1-yl)azetidin-3-yl)acetonitrile] | 0.185 | > 10 | 0.049 | 0.008
CCC(=O)N1CC(CC#N)(n2cc(-c3nc(-c4cnn(C)c4)cn4nccc34)cn2)C1 [Example 10, 2-(3-(4-(6-(1-Methyl-1H-pyrazol-4-yl)pyrazolo[1,5-a]pyrazin-4-yl)-1H-pyrazol-1-yl)-1-propionylazetidin-3-yl)acetonitrile] | 5.71 | > 10 | 1.6 | 0.58
Cn1cc(-c2cn3nccc3c(-c3cnn([C@]4(CC#N)C[C@H](CC#N)C4)c3)n2)cn1 [Example 11, 2,2′-((1s,3s)-1-(4-(6-(1-Methyl-1H-pyrazol-4-yl)pyrazolo[1,5-a]pyrazin-4-yl)-1H-pyrazol-1-yl)cyclobutane-1,3-diyl)diacetonitrile] | 0.273 | > 6.17 | 0.038 | 0.008
Cn1cc(-c2cn3nccc3c(-c3cnn([C@]4(CC#N)C[C@H](O)C4)c3)n2)cn1 [Example 13, 2-((1s,3r)-3-Hydroxy-1-(4-(6-(1-methyl-1H-pyrazol-4-yl)pyrazolo[1,5-a]pyrazin-4-yl)-1H-pyrazol-1-yl)cyclobutyl)acetonitrile] | 3.23 | > 10 |  | 0.149
Cn1cc(-c2cn3nccc3c(-c3cnn([C@]4(CC#N)C[C@@H](O)C4)c3)n2)cn1 [Example 14, 2-((1r,3s)-3-Hydroxy-1-(4-(6-(1-methyl-1H-pyrazol-4-yl)pyrazolo[1,5-a]pyrazin-4-yl)-1H-pyrazol-1-yl)cyclobutyl)acetonitrile] | 1.06 | > 10 |  | 0.081
CO[C@H]1C[C@](CC#N)(n2cc(-c3nc(-c4cnn(C)c4)cn4nccc34)cn2)C1 [Example 15, 2-((1r,3s)-3-Methoxy-1-(4-(6-(1-methyl-1H-pyrazol-4-yl)pyrazolo[1,5-a]pyrazin-4-yl)-1H-pyrazol-1-yl)cyclobutyl)acetonitrile] | 1.5 | > 9.12 | 0.228 | 
CO[C@H]1C[C@@](CC#N)(n2cc(-c3nc(-c4cnn(C)c4)cn4nccc34)cn2)C1 [Example 16, 2-((1s,3r)-3-Methoxy-1-(4-(6-(1-methyl-1H-pyrazol-4-yl)pyrazolo[1,5-a]pyrazin-4-yl)-1H-pyrazol-1-yl)cyclobutyl)acetonitrile] | 0.664 | 10 | 0.099 | 
C[C@H]1N(CC(F)(F)F)C[C@]1(CC#N)n1cc(-c2nc(-c3cnn(C)c3)cn3nccc23)cn1 [Example 17, 2-((2R,3S)-2-Methyl-3-(4-(6-(1-methyl-1H-pyrazol-4-yl)pyrazolo[1,5-a]pyrazin-4-yl)-1H-pyrazol-1-yl)-1-(2,2,2-trifluoroethyl)azetidin-3-yl)acetonitrile] | 1.73 | 10 | 0.205 | 0.035
Cn1cc(-c2cn3nccc3c(-c3cnn([C@]4(CC#N)C[C@@H](c5ccn[nH]5)C4)c3)n2)cn1 [Example 18, 2-((1r,3r)-1-(4-(6-(1-Methyl-1H-pyrazol-4-yl)pyrazolo[1,5-a]pyrazin-4-yl)-1H-pyrazol-1-yl)-3-(1H-pyrazol-5-yl)cyclobutyl)acetonitrile] | 1.08 | 10 | 0.206 | 0.047
Cc1nn([C@]2(CC#N)C[C@@H](C#N)C2)cc1-c1nc(-c2cnn(C)c2)cn2nccc12 [Example 21, (1r,3r)-3-(Cyanomethyl)-3-(3-methyl-4-(6-(1-methyl-1H-pyrazol-4-yl)pyrazolo[1,5-a]pyrazin-4-yl)-1H-pyrazol-1-yl)cyclobutane-1-carbonitrile] | 1.29 | > 10 | 0.109 | 0.034
Cn1cc(-c2cn3nccc3c(-c3cnn([C@]4(CC#N)C[C@@H](C#N)C4)c3)n2)c(CO)n1 [Example 22, (1r,3r)-3-(Cyanomethyl)-3-(4-(6-(3-(hydroxymethyl)-1-methyl-1H-pyrazol-4-yl)pyrazolo[1,5-a]pyrazin-4-yl)-1H-pyrazol-1-yl)cyclobutane-1-carbonitrile] | 2.54 | > 10 | 0.127 | 0.03
CO[C@H]1C[C@](CC#N)(n2cc(-c3nc(-c4cc(N)n(C)n4)cn4nccc34)cn2)C1 [Example 24, 2-((1r,3s)-1-(4-(6-(5-Amino-1-methyl-1H-pyrazol-3-yl)pyrazolo[1,5-a]pyrazin-4-yl)-1H-pyrazol-1-yl)-3-methoxycyclobutyl)acetonitrile] | 3.55 | > 10 | 0.432 | 0.025

— patent US10144738B2, “Pyrazolo[1,5-A]PYRAZIN-4-YL derivatives” (Pfizer Inc., priority 2016, dated 2018)
